Test results published in US7053175B1, “Synthetic peptides useful in biological assays for detecting infections caused by group O HIV-1 viruses” (Bio-Rad Pasteur, priority 1997, dated 2006).

Legend:
[1] = tested on: serum samples from patients infected with group O HIV-1 retroviruses; assay: Immunoenzymatic test: Test No. 2 (immunoreactivity with diluted sera); type: binding, human; details: solid phase peptide 2 μg/ml; for Number of samples: sera of Table V; for ABSORBANCE (OD): cyclized
Excerpt: The serum samples from patients infected with group O HIV-1 retroviruses were obtained by the Yaounde Pasteur Centre in Cameroon and were serotyped group O according to the serological algorithm described in AIDS (1977), 11, pp. 445-453. A genotyped sample (Maryland) is obtained from the United States. These samples were previously diluted in negative human serum at the dilutions given in Table V, in order to have a sufficient volume for the different immunoreactivity tests.
The synthetic peptides used were dissolved in water at a concentration of 1 mg/ml (stock solution). For the solid phase sensitization step (“coating”), the procedure was carried out as described for Example 2.
The serum samples were diluted 1/5 with a skimmed milk solution (citrate buffer supplemented with 0.01% of phenol red, 0.25% of chloroform and 0.25% of Kathon®), deposited in the wells of plates and incubated for 30 min at 40° C.
(§1) After washing with a Tris-NaCl buffer solution pH 7.4 containing 0.1% of Tween® 20 and 0.001% of sodium merthiolate, 100 μl of a solution of conjugate consisting of horseradish peroxidase-labelled anti-human IgG and IgM goat antibodies, containing as preservative 0.01% of sodium merthiolate, in solution in a citrate buffer solution supplemented with 30% glycerol and 25% normal foetal calf serum, were added to each well of the plates and then they were incubated for 30 min at 40° C.
After washing with a Tris-NaCl buffer solution pH 7.4 containing 0.1% of Tween® 20 and 0.001% of sodium merthiolate, the colour was developed as described in Example 2.
The relative absorbance (OD) (A490-A620) read in each well is proportional to the immunoreactivity of each peptide. It indicates the ability of each peptide to react with the biological sample with which the test is carried out.
The reactivity of the peptides of the invention, peptides No. 10 (14B), No. 11 (18B), No. 12 (19B), No. 14 (21B), No. 15 (22B), No. 16 (23B) all in cyclized form, was compared with that of three homologous synthetic peptides having, as sequence, a portion of the natural sequence of the envelope (env) of a group O HIV-1 retrovirus. These peptides are two peptides derived from the VAU isolate—the peptide VAU 22 AA and the peptide VAU 35 AA—and the peptide MVP 5180 (designated “MVP 5180” in Table V). The peptides VAU 22 AA and VAU 35 AA (whose structure is indicated in Example 2) and the peptide MVP 5180 comprise an immunodominant epitope of gp41.
All these peptides were used in cyclized form. The sequence of the MVP 5180 peptide is the following:
For each peptide tested, the samples were arranged into four classes (a, b, c and d) corresponding to various levels of relative absorbance read at the wavelengths A492-A620: • for a: OD<0.100, • for b: 0.100<OD<0.500, • for c: 0.500<OD<1.000, • for d: OD>1.000, thus making it possible to evaluate the degree of immunoreactivity of the peptides.

[2] = tested on: sera from patients infected with group O HIV-1 retroviruses; assay: Immunoenzymatic test: Test No. 1 (immunoreactivity of peptides coated on microplates); type: binding, human; set-up: key to ABSORBANCE: >: signal greater than the reading capacity of the spectrophotometer; details: for ABSORBANCE: cyclized peptide 2 μg/ml
Description: The sera used ESS, DUR, VAU and HAD are sera from French patients infected with group O HIV-1 retroviruses. The other serum samples from patients infected with group O HIV-1 retroviruses were obtained by the Yaoundé Pasteur Centre in Cameroon and were serotyped group O according to the serological algorithm described in AIDS (1977), 11, pp 445-453.
The HIV-negative sera (n=48) were obtained from healthy volunteers.
The synthetic peptides used were dissolved in water at a concentration of 1 mg/ml (stock solution). For the solid phase sensitization step (coating), 110 μl of a solution at 2 μg/ml of each peptide (obtained by diluting the stock solution with 0.1 M carbonate buffer solution) were added to each well of the microtitre plates Microtiter™ (NUNC). After incubating overnight at room temperature, the microplates were first washed with a Tris-NaCl buffer solution pH 7.4 containing 0.1% of Tween® 20 and 0.001% sodium merthiolate, and then saturated with a PBS solution containing 0.5% of Régilait™ (dried skimmed milk). After aspirating the saturating solution, the plates were heated for 10 min at 50° C.
The serum samples were diluted 1/5 with a skimmed milk solution (citrate buffer supplemented with 0.01% of phenol red, 0.25% of chloroform and 0.25% of Kathon®), deposited in the wells of the plates and incubated for 30 min at 40° C.
as §1, with “each plate” for “each”, “well and then” for “well of”, “plates” for “plates and then they”
After washing with a Tris-NaCl buffer solution pH 7.4 containing 0.1% of Tween® 20 and 0.001% of sodium merthiolate, the colour was developed by adding, to each well, 100 μl of O-phenylenediamine in solution in hydrogen peroxide. The microplates were then incubated for 30 min at room temperature and in the dark. The coloured reaction was then stopped by addition of 100 μl of 4N sulphuric acid. The absorbance (A) was determined at 490 and 620 nm.
The relative absorbance (A490-A620) read in each well is proportional to the immunoreactivity of each peptide. It indicates the ability of each peptide to react with the biological sample with which the test is carried out. The cut-off value was determined as being an absorbance equal to 0.15. It corresponds to the mean of the negative values (n=48) plus 12 standard deviations.
The reactivity of the peptides of the invention (peptide No. 3 (4B), peptide No. 2 (3B) and peptide No. 1 (2B), all in cyclized form), was compared with that of two synthetic peptides having, as sequence, a portion of the natural sequence of the envelope (env) of the VAU isolate (group O HIV-1 retrovirus) and comprising an immunodominant epitope of gp41.
For the study, these peptides were used in cyclized form.

Work on LLNSWGCKGRLVCYTS [PEPTIDE No. 10 (14B)] yielded a Number of samples ([1]; CLASS A (a: OD<0.100)) of 3, a Number of samples ([1]; CLASS B (b: 0.100<OD<0.500)) of 2 and a Number of samples ([1]; CLASS C (c: 0.500<OD<1.000)) of 5. The Number of samples ([1]; CLASS D (d: OD>1.000)) was 4, the “ABSORBANCE (OD)” value ([1]; serum 258 OUDI at 1/100) was 0.587 and the “ABSORBANCE (OD)” value ([1]; serum 625 at 1/50) was 0.838. For the same sequence, the “ABSORBANCE (OD)” value ([1]; serum 3600 at 1/100) was 0.482, the “ABSORBANCE (OD)” value ([1]; serum 3613 at ¼00) was 1.108 and the “ABSORBANCE (OD)” value ([1]; serum 3653 at 1/10) was 0.347. For the same sequence, the “ABSORBANCE (OD)” value ([1]; serum 4280 at 1/50) was 0.022, the “ABSORBANCE (OD)” value ([1]; serum 6111 at 1/100) was 0.596 and the “ABSORBANCE (OD)” value ([1]; serum DJOU at 1/100) was 1.268. For the same sequence, the “ABSORBANCE (OD)” value ([1]; serum DO15 at 1/100) was 1.613, the “ABSORBANCE (OD)” value ([1]; serum MBASSI at 1/100) was 1.217 and the “ABSORBANCE (OD)” value ([1]; serum Maryland at ¼00) was 0.524. The “ABSORBANCE (OD)” value ([1]; serum NGO at 1/50) was 0.067, the “ABSORBANCE (OD)” value ([1]; serum NJEM at 1/100) was 0.032 and the “ABSORBANCE (OD)” value ([1]; serum WANG at 1/50) was 0.698.

In the case of “LLSLWGCRGRLVCYTSVQWNET [PEPTIDE No. 2 (3B)]”, the ABSORBANCE ([2]; serum 134) is reported as “>”, the ABSORBANCE ([2]; serum 402) is reported as “>” and the ABSORBANCE ([2]; serum 625) is reported as “>”. For the same sequence, the ABSORBANCE ([2]; serum 1062) was “>”, the ABSORBANCE ([2]; serum 1105*) was 1.031 and the ABSORBANCE ([2]; serum 1581) was “>”. For the same sequence, the ABSORBANCE ([2]; serum 1702) was “>”, the ABSORBANCE ([2]; serum 1754) was “>” and the ABSORBANCE ([2]; serum 2294) was “>”. The ABSORBANCE ([2]; serum 2312) was “>”, the ABSORBANCE ([2]; serum 2313) was “>” and the ABSORBANCE ([2]; serum 2352) was “>”. For the same sequence, the ABSORBANCE ([2]; serum 2551) was “>”, the ABSORBANCE ([2]; serum 2700) was 0.274 and the ABSORBANCE ([2]; serum 3016) was “>”. The ABSORBANCE ([2]; serum 3136) was 0.992, the ABSORBANCE ([2]; serum 3235) was “>” and the ABSORBANCE ([2]; serum 3236) was “>”. The ABSORBANCE ([2]; serum 3302) was “>”, the ABSORBANCE ([2]; serum 3482) was “>” and the ABSORBANCE ([2]; serum 3529) was “>”. The ABSORBANCE ([2]; serum 3600*) was “>”, the ABSORBANCE ([2]; serum 3627*) was “>” and the ABSORBANCE ([2]; serum 3637) was “>”. For the same sequence, the ABSORBANCE ([2]; serum 3653) was “>”, the ABSORBANCE ([2]; serum 3771) was “>” and the ABSORBANCE ([2]; serum 3884*) was “>”. For the same sequence, the ABSORBANCE ([2]; serum 3891) was “>”, the ABSORBANCE ([2]; serum 3935) was 0.893 and the ABSORBANCE ([2]; serum 3945) was “>”. The ABSORBANCE ([2]; serum 4021*) was 0.119, the ABSORBANCE ([2]; serum 4288*) was “>” and the ABSORBANCE ([2]; serum 4364) was “>”. The ABSORBANCE ([2]; serum 4434) was “>”, the ABSORBANCE ([2]; serum 4477) was “>” and the ABSORBANCE ([2]; serum 4489*) was “>”. For the same sequence, the ABSORBANCE ([2]; serum 5149*) was “>”, the ABSORBANCE ([2]; serum 5164) was “>” and the ABSORBANCE ([2]; serum 5210) was “>”. The ABSORBANCE ([2]; serum 5270*) was “>”, the ABSORBANCE ([2]; serum 5373) was “>” and the ABSORBANCE ([2]; serum 5453) was 0.081. For the same sequence, the ABSORBANCE ([2]; serum 5766*) was “>”, the ABSORBANCE ([2]; serum 5931) was “>” and the ABSORBANCE ([2]; serum 5969*) was 0.282. The ABSORBANCE ([2]; serum 6111) was “>”, the ABSORBANCE ([2]; serum 6165) was “>” and the ABSORBANCE ([2]; serum 6198*) was “>”. It also gave an ABSORBANCE ([2]; serum 6295*) of 1.063, an ABSORBANCE ([2]; serum 6487) of 1.017 and an ABSORBANCE ([2]; serum 6512*) of 0.785. The ABSORBANCE ([2]; serum 6627) was “>”, the ABSORBANCE ([2]; serum 6689*) was “>” and the ABSORBANCE ([2]; serum 6697) was “>”. The ABSORBANCE ([2]; serum 6782) was 2.091, the ABSORBANCE ([2]; serum 6891) was 0.614 and the ABSORBANCE ([2]; serum 6976*) was “>”. The ABSORBANCE ([2]; serum 6998) was “>”, the ABSORBANCE ([2]; serum 7007) was 2.334 and the ABSORBANCE ([2]; serum 7120) was “>”. The ABSORBANCE ([2]; serum 7212) was “>”, the ABSORBANCE ([2]; serum 7258*) was “>” and the ABSORBANCE ([2]; serum 7297*) was “>”. For the same sequence, the ABSORBANCE ([2]; serum 7439) was “>”, the ABSORBANCE ([2]; serum 7443) was “>” and the ABSORBANCE ([2]; serum DUR*) was “>”. For the same sequence, the ABSORBANCE ([2]; serum ESS*) was “>”, the ABSORBANCE ([2]; serum HAD) was 0.518 and the ABSORBANCE ([2]; serum VAU*) was “>”. The “immunoreactivity compared with the other peptides (in words)” value ([2]; summary of Table IV) was “more immunoreactive than the VAU 22 AA peptide”.
